Values belong to the compound of their own block, whether it stands above or below them.
How the values were obtained:
[1] = Solubility of the racemic potassium salt solvated with ethylene glycol in ethanol/ethylene glycol mixture (80% V-20% V) with potassium hydroxide excess; format: physicochemical; details: ethanol/ethylene glycol (80% V-20% V), KOH excess about 0.2 molar equivalent
[2] = cited from earlier work
[3] = Solubility of the racemic potassium salt solvated in methanol in methanolic potassium hydroxide solution; format: physicochemical; details: KOH excess about 0.2 molar equivalent
gastric lesions = details: compared with the other known proton-pump inhibitors; cited from earlier work
[4] = compared with S-tenatoprazole itself and other proton-pump inhibitors; cited from earlier work
[5] = Solubility of the racemic potassium salt solvated with ethanol in ethanolic potassium hydroxide solution; format: physicochemical; details: KOH excess about 0.2 molar equivalent
[6] = relative to the other proton-pump inhibitors, for instance omeprazole or lansoprazole

Compound: COc1ccc2[nH]c([S@@+]([O-])Cc3ncc(C)c(OC)c3C)nc2n1 [S-tenatoprazole]
pharmacokinetic properties ([2]; compared with the racemic mixture and the enantiomer of R configuration): significantly different

Compound: COc1ccc2nc([S+]([O-])Cc3ncc(C)c(OC)c3C)[nH]c2n1 (stereo not shown) [tenatoprazole, 5-methoxy-2-[[(4-methoxy-3,5-dimethyl-2-pyridyl)methyl]sulfinyl]imidazo[4,5-b]pyridine]
duration of action [2, 6]: markedly longer duration of action | plasmatic half-life [2, 6]: about seven times greater | level of relief of the symptoms and of cicatrization of gastric lesions (gastric lesions): greater level of relief of the symptoms and of cicatrization of gastric lesions

Compound: COc1ccc2[nH]c([S+]([O-])Cc3ncc(C)c(OC)c3C)nc2n1.O.[Na] (stereo not shown) [S-tenatoprazole sodium salt monohydrate]
solubility [4]: excellent solubility

Other lines, results leading:

Solubility (mass %) ([1]; 28 ° C.): 20.3 mass % | Solubility (mass %) ([1]; 32 ° C.): 24 mass % | Solubility (mass %) ([1]; 34.5 ° C.): 25.6 mass % | Solubility (mass %) ([1]; 39 ° C.): 33.5 mass %
Compound: COc1ccc2nc([S+]([O-])Cc3ncc(C)c(OC)c3C)[n-]c2n1.[K+] (racemic) [racemic mixture of the potassium salt solvated with ethylene glycol, potassium tenatoprazole ethylene glycolate]

Solubility (mass %) ([3]; 30 ° C.): 4.4 mass % | Solubility (mass %) ([3]; 38 ° C.): 5.2 mass % | Solubility (mass %) ([3]; 40 ° C.): 6.5 mass % | Solubility (mass %) ([3]; 42 ° C.): 7.7 mass % | Solubility (mass %) ([3]; 56 ° C.): 12.2 mass %
Compound: COc1ccc2nc([S+]([O-])Cc3ncc(C)c(OC)c3C)[n-]c2n1.[K+] (racemic) [racemic mixture of the potassium salt solvated in methanol, potassium tenatoprazole dimethanolate]

Solubility (mass %) ([5]; 33.9 ° C.): 4.24 mass % | Solubility (mass %) ([5]; 37 ° C.): 5.3 mass %
Compound: COc1ccc2nc([S+]([O-])Cc3ncc(C)c(OC)c3C)[n-]c2n1.[K+] (racemic) [racemic mixture of the potassium salt solvated with ethanol, potassium tenatoprazole diethanolate]

From US8546574B2, “Conglomerates of tenatoprazole potassium salts” (priority 2006, dated 2013)
